Data published in article PMC9025901, “New Genetic Bomb Trigger: Design, Synthesis, Molecular Dynamics Simulation, and Biological Evaluation of Novel BIBR1532-Related Analogs Targeting Telomerase against Non-Small Cell Lung Cancer” (Pharmaceuticals, 2022).

What was measured:
telomerase = target: T1, telomerase (Homo sapiens, UniProt O14746); assay: TRAP / RTQ-TRAP telomerase activity assay in A549 cell-free lysates; format: biochemical; settings: telomerase inhibition, mean ± SEM;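 further: telomerase activity measured in cell-free extracts of human A549 epithelial lung carcinoma cells, tested across a range of inhibitor concentrations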
T1 construct: A549 cells (human epithelial cell lung carcinoma, ATCC, Manassas, VA) were lysed in; host or cells: A549 cell lysate (CHAPS extract, 5 µg total protein)
T1 sequence (O14746 whole entry): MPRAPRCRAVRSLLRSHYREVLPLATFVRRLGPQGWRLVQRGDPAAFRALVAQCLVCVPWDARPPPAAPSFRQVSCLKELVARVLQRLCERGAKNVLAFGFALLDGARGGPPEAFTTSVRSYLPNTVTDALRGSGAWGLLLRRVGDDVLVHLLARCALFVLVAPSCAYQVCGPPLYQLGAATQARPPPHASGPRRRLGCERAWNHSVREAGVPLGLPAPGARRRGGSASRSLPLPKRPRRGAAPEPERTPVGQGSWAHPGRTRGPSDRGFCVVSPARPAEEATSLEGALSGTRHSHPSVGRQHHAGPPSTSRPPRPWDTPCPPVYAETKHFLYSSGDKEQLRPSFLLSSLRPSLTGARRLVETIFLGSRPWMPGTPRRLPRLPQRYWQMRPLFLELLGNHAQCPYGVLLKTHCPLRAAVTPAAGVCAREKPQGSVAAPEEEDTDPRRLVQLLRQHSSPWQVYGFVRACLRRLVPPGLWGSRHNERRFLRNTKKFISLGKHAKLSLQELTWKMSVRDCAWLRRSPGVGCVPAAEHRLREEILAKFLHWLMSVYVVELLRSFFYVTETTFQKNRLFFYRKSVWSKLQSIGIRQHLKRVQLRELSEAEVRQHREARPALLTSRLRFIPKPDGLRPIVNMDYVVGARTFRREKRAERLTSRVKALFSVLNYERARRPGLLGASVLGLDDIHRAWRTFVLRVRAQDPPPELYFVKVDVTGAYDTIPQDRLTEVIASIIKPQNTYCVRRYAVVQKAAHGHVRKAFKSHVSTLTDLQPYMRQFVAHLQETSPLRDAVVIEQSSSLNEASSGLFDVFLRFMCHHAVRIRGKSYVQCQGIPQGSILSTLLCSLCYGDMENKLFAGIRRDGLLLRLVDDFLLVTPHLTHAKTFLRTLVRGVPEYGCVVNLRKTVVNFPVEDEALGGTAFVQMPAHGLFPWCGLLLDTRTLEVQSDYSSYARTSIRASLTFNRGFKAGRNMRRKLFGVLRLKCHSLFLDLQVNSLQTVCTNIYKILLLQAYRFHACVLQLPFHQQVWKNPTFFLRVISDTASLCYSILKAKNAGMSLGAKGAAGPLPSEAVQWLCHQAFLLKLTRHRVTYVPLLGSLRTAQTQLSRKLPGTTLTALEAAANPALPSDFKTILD
T1 sequence (O60832 whole entry partner): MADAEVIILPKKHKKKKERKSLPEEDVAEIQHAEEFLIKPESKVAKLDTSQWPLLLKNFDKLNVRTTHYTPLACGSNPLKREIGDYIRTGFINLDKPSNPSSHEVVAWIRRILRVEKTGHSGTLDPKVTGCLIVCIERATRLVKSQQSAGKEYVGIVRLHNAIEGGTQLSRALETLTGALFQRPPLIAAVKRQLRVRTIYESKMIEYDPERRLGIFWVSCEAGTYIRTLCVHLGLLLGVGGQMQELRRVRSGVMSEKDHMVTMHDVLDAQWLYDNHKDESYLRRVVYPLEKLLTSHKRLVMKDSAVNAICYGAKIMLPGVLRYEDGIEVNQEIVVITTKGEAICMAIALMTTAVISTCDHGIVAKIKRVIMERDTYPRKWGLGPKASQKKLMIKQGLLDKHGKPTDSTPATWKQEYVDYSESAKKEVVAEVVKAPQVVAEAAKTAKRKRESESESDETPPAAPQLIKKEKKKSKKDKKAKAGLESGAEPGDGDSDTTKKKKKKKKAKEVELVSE
T1 sequence (Q9NX24 whole entry partner): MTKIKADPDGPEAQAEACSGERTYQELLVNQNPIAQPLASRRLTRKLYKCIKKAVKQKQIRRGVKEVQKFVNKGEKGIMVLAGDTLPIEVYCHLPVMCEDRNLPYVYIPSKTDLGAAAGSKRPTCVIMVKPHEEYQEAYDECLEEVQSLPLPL
T1 sequence (Q9NPE3 whole entry partner): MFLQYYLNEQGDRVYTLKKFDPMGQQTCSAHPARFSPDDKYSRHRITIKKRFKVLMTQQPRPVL
T1 sequence (Q9NY12 whole entry partner): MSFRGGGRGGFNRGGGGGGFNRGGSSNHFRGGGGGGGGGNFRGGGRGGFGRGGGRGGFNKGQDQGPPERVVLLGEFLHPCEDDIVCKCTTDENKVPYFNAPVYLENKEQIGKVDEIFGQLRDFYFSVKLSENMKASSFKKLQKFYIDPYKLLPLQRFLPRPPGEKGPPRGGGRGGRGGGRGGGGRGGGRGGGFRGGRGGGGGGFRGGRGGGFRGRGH
T1 sequence (Q9BUR4 whole entry partner): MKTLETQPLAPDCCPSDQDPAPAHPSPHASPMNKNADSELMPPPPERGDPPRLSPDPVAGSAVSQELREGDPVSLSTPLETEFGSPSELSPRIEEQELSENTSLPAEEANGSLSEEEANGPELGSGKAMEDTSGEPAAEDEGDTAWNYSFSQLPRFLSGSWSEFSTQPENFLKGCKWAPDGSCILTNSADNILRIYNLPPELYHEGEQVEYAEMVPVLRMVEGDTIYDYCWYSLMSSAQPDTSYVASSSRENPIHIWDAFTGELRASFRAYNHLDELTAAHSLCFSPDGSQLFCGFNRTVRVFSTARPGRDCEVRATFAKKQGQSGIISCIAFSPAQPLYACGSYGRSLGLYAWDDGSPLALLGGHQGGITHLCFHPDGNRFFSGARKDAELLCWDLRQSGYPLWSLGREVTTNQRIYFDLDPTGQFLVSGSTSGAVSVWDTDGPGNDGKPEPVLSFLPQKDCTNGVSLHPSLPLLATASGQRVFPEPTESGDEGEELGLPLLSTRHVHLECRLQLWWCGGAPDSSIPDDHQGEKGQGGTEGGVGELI
Description: In cell-free investigations, human A549 (epithelial cell lung carcinoma) lysates were utilized to evaluate telomerase with various inhibitor concentrations. […] The Telomeric Repeat Amplification Protocol (TRAP) [61] was used to evaluate the activity of telomerase, with some changes that we have previously described [62, 63]. A549 cells (human epithelial cell lung carcinoma, ATCC, Manassas, VA) were lysed in (10 mM) Tris-HCl, pH 7.5, (1 mM) EGTA, (1 mM) MgCl2, (5 mM) 2-mercaptoethanol, (0.1 mM) PMSF, (0.5%) CHAPS, and (10%) glycerol (Sigma-Aldrich, St. Louis, MO, USA) and centrifugation. The supernatants were kept at -80 °C. The BCA-1 Protein Assay Kit was used to assess the protein concentration in cell extracts (Sigma-Aldrich, St. Louis, MO, USA). […] To inactivate telomerase, the cells were elongated for 30 min at 37 °C and 10 min at 96 °C. Copy CX-primer was added to the elongation mixture along with 0.1 μL ([NT]) and 2.5 units Taq-polymerase, followed by the following PCR: 94 °C for 5 min; 30 cycles of 94 °C for 30 s, 50 °C for 30 s, and 72 °C for 40 s, and 72 °C for 5 min. […] The gels were stained with the SYBR Green I (Invitrogen, Grand Island, NY, USA), then photographed under the UV light in ChemiDocTM XRS imaging system and analyzed with GelAnalyzer 2010. Analysis was carried out using SPSS 25 software, a 2-way ANOVA, and a student's t-test (IBM SPSS Statistics, Armonk, NY, USA). The mean ± SEM is used to express the findings. The significance level was set at p ≤ 0.05. […] According to Sebaugh J.L., et al.'s guidelines, the values were assessed using the Prism 6 software (GraphPad, San Diego, CA, USA) [65].

| SMILES | melting point [°C] | IC50 (telomerase) [µM] | IC90 (telomerase) [µM] |
| --- | --- | --- | --- |
| N#C/C(=C\c1ccc(C(F)(F)F)cc1)C(=O)Nc1sc2c(c1C#N)CCC2 [Compound 25a, (2E/2Z)-2-Cyano-N-{3-cyano-4H,5H,6H-cyclopenta[b]thiophen-2-yl}-3-[4-(trifluoromethyl)phenyl]prop-2-enamide] | 354 to 356 | 20.9 ± 0.7 | 109 ± 3.2 |
| N#C/C(=C\c1ccc(C(F)(F)F)cc1)C(=O)Nc1sc2c(c1C#N)CCCC2 [Compound 25b, (2E)-2-Cyano-N-(3-cyano-4,5,6,7-tetrahydro-1-benzothiophen-2-yl)-3-[4-(trifluoromethyl)phenyl]prop-2-enamide] | 225 to 227 | 25.8 ± 1 | 140 ± 4.7 |
| COc1ccc(/C=C(\C#N)C(=O)Nc2sc3c(c2C#N)CCC3)cc1OC [Compound 26a, (2E)-2-Cyano-N-{3-cyano-4H,5H,6H-cyclopenta[b]thiophen-2-yl}-3-(3,4-dimethoxyphenyl)prop-2-enamide] | – | 13.5 ± 0.6 | 154 |
| COc1ccc(/C=C(\C#N)C(=O)Nc2sc3c(c2C#N)CCCC3)cc1OC [Compound 26b, (2E)-2-Cyano-N-(3-cyano-4,5,6,7-tetrahydro-1-benzothiophen-2-yl)-3-(3,4-dimethoxyphenyl)prop-2-enamide] | – | 53.6 ± 1.8 | 751 |
| N#C/C(=C\c1ccc(Cl)c(Cl)c1)C(=O)Nc1sc2c(c1C#N)CCC2 [Compound 27a, (2E/2Z)-2-Cyano-N-{3-cyano-4H,5H,6H-cyclopenta[b]thiophen-2-yl}-3-(3,4-dichlorophenyl)prop-2-enamide] | 329 to 331 | 6.5 ± 0.3 | 164 |
| N#C/C(=C\c1ccc(Cl)c(Cl)c1)C(=O)Nc1sc2c(c1C#N)CCCC2 [Compound 27b, (2E/2Z)-2-Cyano-N-(3-cyano-4,5,6,7-tetrahydro-1-benzothiophen-2-yl)-3-(3,4-dichlorophenyl)prop-2-enamide] | 376 to 378 | 12.5 ± 0.6 | 138 |
| N#C/C(=C\c1cccc(Cl)c1Cl)C(=O)Nc1sc2c(c1C#N)CCC2 [Compound 28a, (2E/2Z)-2-Cyano-N-{3-cyano-4H,5H,6H-cyclopenta[b]thiophen-2-yl}-3-(2,3-dichlorophenyl)prop-2-enamide] | 302 to 304 | 6.7 ± 0.1 | 67.8 |
| N#C/C(=C\c1cccc(Cl)c1Cl)C(=O)Nc1sc2c(c1C#N)CCCC2 [Compound 28b, (2E)-2-Cyano-N-(3-cyano-4,5,6,7-tetrahydro-1-benzothiophen-2-yl)-3-(2,3-dichlorophenyl)prop-2-enamide] | 232 to 234 | 8.3 ± 0.3 | 57.4 |
| N#C/C(=C\c1ccc(N2CCCCC2)cc1)C(=O)Nc1sc2c(c1C#N)CCCC2 [Compound 29b, (2E)-2-Cyano-N-(3-cyano-4,5,6,7-tetrahydro-1-benzothiophen-2-yl)-3-[4-(piperidin-1-yl)phenyl]prop-2-enamide] | 262 to 264 | 4.8 ± 0.2 | 32.8 ± 1.5 |
| N#C/C(=C\c1ccc(N2CCOCC2)cc1)C(=O)Nc1sc2c(c1C#N)CCC2 [Compound 30a, (2E)-2-Cyano-N-{3-cyano-4H,5H,6H-cyclopenta[b]thiophen-2-yl}-3-[4-(morpholin-4-yl)phenyl]prop-2-enamide] | – | 5.2 ± 0.2 | 112 ± 3.6 |
| N#C/C(=C\c1ccc(N2CCOCC2)cc1)C(=O)Nc1sc2c(c1C#N)CCCC2 [Compound 30b, (2E)-2-Cyano-N-(3-cyano-4,5,6,7-tetrahydro-1-benzothiophen-2-yl)-3-[4-(morpholin-4-yl)phenyl]prop-2-enamide] | 246 to 248 | 5.9 ± 0.2 | 119 ± 4.6 |
| CN1CCN(c2ccc(/C=C(\C#N)C(=O)Nc3sc4c(c3C#N)CCC4)cc2)CC1 [Compound 31a, (2E)-2-Cyano-N-{3-cyano-4H,5H,6H-cyclopenta[b]thiophen-2-yl}-3-[4-(4-methylpiperazin-1-yl)phenyl]prop-2-enamide] | – | 98.5 ± 3.8 | 200 |
| CN1CCN(c2ccc(/C=C(\C#N)C(=O)Nc3sc4c(c3C#N)CCCC4)cc2)CC1 [Compound 31b, (2E)-2-Cyano-N-(3-cyano-4,5,6,7-tetrahydro-1-benzothiophen-2-yl)-3-[4-(4-methylpiperazin-1-yl)phenyl]prop-2-enamide] | 257 to 259 | 89.9 ± 3.6 | 165 |
| COc1cc(/C=C(\C#N)C(=O)Nc2sc3c(c2C#N)CCC3)ccc1OCc1ccccc1 [Compound 32a, (2E)-3-[4-(Benzyloxy)-3-methoxyphenyl]-2-cyano-N-{3-cyano-4H,5H,6H-cyclopenta[b]thiophen-2-yl}prop-2-enamide] | 233 to 235 | 6.4 ± 0.2 | 177 |
| COc1cc(/C=C(\C#N)C(=O)Nc2sc3c(c2C#N)CCCC3)ccc1OCc1ccccc1 [Compound 32b, (2E)-3-[4-(Benzyloxy)-3-methoxyphenyl]-2-cyano-N-(3-cyano-4,5,6,7-tetrahydro-1-benzothiophen-2-yl)prop-2-enamide] | 220 to 222 | 110 ± 3.7 | 181 |
| Cc1nn(-c2ccccc2)cc1/C=C(\C#N)C(=O)Nc1sc2c(c1C#N)CCC2 [Compound 33a, (2E)-2-Cyano-N-{3-cyano-4H,5H,6H-cyclopenta[b]thiophen-2-yl}-3-(3-methyl-1-phenyl-1H-pyrazol-4-yl)prop-2-enamide] | – | 205 ± 4 | 643 |
| Cc1nn(-c2ccccc2)cc1/C=C(\C#N)C(=O)Nc1sc2c(c1C#N)CCCC2 [Compound 33b, (2E)-2-Cyano-N-(3-cyano-4,5,6,7-tetrahydro-1-benzothiophen-2-yl)-3-(3-methyl-1-phenyl-1H-pyrazol-4-yl)prop-2-enamide] | 256 to 258 | 178 ± 3.3 | 574 |
| N#C/C(=C\c1c[nH]nc1-c1ccccc1)C(=O)Nc1sc2c(c1C#N)CCC2 [Compound 34a, (2E)-2-Cyano-N-{3-cyano-4H,5H,6H-cyclopenta[b]thiophen-2-yl}-3-(3-phenyl-1H-pyrazol-4-yl)prop-2-enamide] | 226 to 228 | 189 ± 6.4 | 1080 |
| N#C/C(=C\c1c[nH]nc1-c1ccccc1)C(=O)Nc1sc2c(c1C#N)CCCC2 [Compound 34b, (2E)-2-Cyano-N-(3-cyano-4,5,6,7-tetrahydro-1-benzothiophen-2-yl)-3-(3-phenyl-1H-pyrazol-4-yl)prop-2-enamide] | 263 to 265 | 38.8 ± 1 | 284 ± 6.6 |
| N#C/C(=C\c1cccc2ccccc12)C(=O)Nc1sc2c(c1C#N)CCC2 [Compound 35a, (2E)-2-Cyano-N-{3-cyano-4H,5H,6H-cyclopenta[b]thiophen-2-yl}-3-(naphthalen-1-yl)prop-2-enamide] | – | 5.1 ± 0.2 | 31.1 ± 1.1 |
| N#C/C(=C\c1cccc2ccccc12)C(=O)Nc1sc2c(c1C#N)CCCC2 [Compound 35b, (2E)-2-Cyano-N-(3-cyano-4,5,6,7-tetrahydro-1-benzothiophen-2-yl)-3-(naphthalen-1-yl)prop-2-enamide] | – | 5.3 ± 0.2 | 18.6 ± 0.9 |
| N#C/C(=C\c1ccc2ccccc2c1)C(=O)Nc1sc2c(c1C#N)CCC2 [Compound 36a, (2E)-2-Cyano-N-{3-cyano-4H,5H,6H-cyclopenta[b]thiophen-2-yl}-3-(naphthalen-2-yl)prop-2-enamide] | – | 5.2 ± 0.2 | 34.9 ± 1.6 |
